Where a name gives a salt, the structure may show the parent alone.
The compounds below were run against T1, Human FAAH (Homo sapiens, UniProt O00519) (assay: Human FAAH lysate assay (CHO cell lysate, AAMCA fluorescent substrate)). Conditions: human FAAH lysate; read-out: Human FAAH lysate assay: IC50.
T1 construct: The full length FAAH was subcloned into the mammalian expression vector, pcDEF.neo; expressed in transfected cells
T1 sequence (O00519 1-579): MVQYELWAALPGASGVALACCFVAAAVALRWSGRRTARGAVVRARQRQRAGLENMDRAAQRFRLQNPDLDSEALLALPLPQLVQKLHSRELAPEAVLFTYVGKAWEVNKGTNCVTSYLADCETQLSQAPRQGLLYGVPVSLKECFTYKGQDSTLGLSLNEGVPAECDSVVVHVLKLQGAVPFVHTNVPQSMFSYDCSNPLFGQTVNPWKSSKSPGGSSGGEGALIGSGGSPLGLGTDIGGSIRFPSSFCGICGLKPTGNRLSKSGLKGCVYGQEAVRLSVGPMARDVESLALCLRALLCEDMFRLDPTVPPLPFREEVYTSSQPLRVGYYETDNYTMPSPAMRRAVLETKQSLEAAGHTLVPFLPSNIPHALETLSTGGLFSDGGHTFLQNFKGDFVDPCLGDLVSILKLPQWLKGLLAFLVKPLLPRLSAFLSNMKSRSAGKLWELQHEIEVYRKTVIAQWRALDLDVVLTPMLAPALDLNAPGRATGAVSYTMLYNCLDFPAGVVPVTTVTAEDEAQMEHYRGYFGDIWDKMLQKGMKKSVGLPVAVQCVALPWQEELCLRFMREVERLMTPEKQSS
Assay type: biochemical
From the text: To assist in assay development stable cell lines for human, murine and rat full length FAAH were developed. Human FAAH cDNA (Accession No: NM-001441.1) was purchased from Origene (Rockville, Md.). The full length FAAH was subcloned into the mammalian expression vector, pcDEF.neo, using XbaI and EcoRI restriction sites and used for stable cell line generation. CHO cells expressing FAAH were used to prepare either crude cell lysate or microsome fractions. To harvest cells, tissue culture media was decanted, the monolayer washed three times with Ca^++Mg^++ free PBS and cells recovered after 15 min in enzyme free dissociation media (Millipore Corp, Billerica, Mass.). Cells were collected by centrifuging at 2000 rpm for 15 min. and the cell pellet re-suspended with 50 mM HEPES (pH 7.4) containing 1 mM EDTA and the protease inhibitors aprotinin (1 mg/ml) and leupeptin (100 μM). […] The pellet containing FAAH-enriched microsomes was re-suspend in 50 mM HEPES, (pH 7,4) 1 mM EDTA, and any remaining DNA sheared by passage of material through a 23 gauge needle and aliquots of enzyme were store at -80° C. prior to use. […] (American Radiolabeled Chemicals; 1 mCi/ml) with FAAH (Life Sciences (1995), 56, 1999-2005 and Journal of Pharmacology and Experimented Therapeutics (1997), 283, 729-734), Analytical. Biochemistry (2003), 318, 270-5. […] Analytical. Biochemistry (2005). 343, 143-51 […] Fluorescent release as a measure of FAAH activity was monitored by reading the plate in a CytoFluor Multiplate Reader ([…]). Whole cell assay is conducted with cells harvested after rinsing tissue culture flasks three times with Ca^++Mg^++ free PBS, incubating for 10 min in Enzyme free dissociation media and centrifuging for 5 minutes at 1,000 rpm in table top centrifuge. Cells are resuspended in assay buffer at desired cell number in (4×10^4 cells/assay in 96-well format; 1×10^4 cells/assay in 384-well format) and assayed as described. […] The reaction was terminated by addition of 2 volumes of chloroform:methanol (1:1) and mixed by vortexing. […] K., et al. A fluorescence-based assay for fatty acid amide hydrolase compatible with high-throughput screening. Anal. Biochem. 343:143-51 (2005) • Wilson S. J., et l. A high-throughput-compatible assay for determining the activity of fatty acid amide hydrolase. Anal Biochem. 318:270-5 (2003).

Row | IC50 | SMILES
1 | 17.9 nM | Cn1c(C2CC2)nc(-c2ccc3nc(C(F)F)ccc3c2)c1Sc1ccc(Cl)cn1 [Example 131, 6-{5-[(5-chloropyridin-2-sulfanyl]-2-cyclopropyl-1-methyl-1H-imidazol-4-yl}-2-difluoromethyl)quinoline]
2 | 36 nM | Cn1cnc(-c2ccc(OC(C)(C)C(N)=O)cc2)c1Sc1ccc(Cl)cn1 [Example 124, 2-(4-{5-[(5-chloropyridin-2-yl)thio]-1-methyl-1H-imidazol-4-yl}phenoxy)-2-methylpropanamide]
3 | 77.9 nM | CC(CO)NC(=O)c1ccc(-c2nc(-c3ccccn3)n(C)c2Sc2ccc(Cl)cc2)cc1 (stereo not drawn) [Example 127, 4-{5-[(4-chlorophenyl)thio]-1-methyl-2-pyridin-2-yl-1H-imidazol-4-yl}-N-(2-hydroxy-1-methylethyl)benzamide]
4 | 7.4 nM | Cn1c(-c2ccn(C3CC3)n2)nc(-c2ccc(-c3ncon3)cc2)c1Sc1ccc(Cl)cc1 [Example 144, 3-(4-{5-[(4-chlorophenyl)sulfanyl]-2-(1-cyclopropyl-1H-pyrazol-3-yl)-1-methyl-1H-imidazol-4-yl}phenyl)-1,2,4-oxadiazole]
5 | 186 nM | Cn1cnc(-c2ccc(OC(C)(C)C(O)C(F)(F)F)cc2)c1Sc1ccc(Cl)cn1 (stereo not drawn) [Example 126, 3-(4-{5-[(5-chloropyridin-2-yl)thio]-1-methyl-1H-imidazol-4-yl}phenoxy)-1,1,1-trifluoro-3-methylbutan-2-ol]

Continued, compound first:

Row | SMILES | IC50
6 | Cn1c(-c2ccccn2)nc(-c2ccc(-c3ccco3)cc2)c1Sc1ccc(Cl)cc1 [Example 116, 5-[(4-chlorophenyl)thio]-4-[4-(2-furyl)phenyl]-1-methyl-2-pyridin-2-yl-1H-imidazol-3-ium trifluoroacetate] | 17.5 nM
7 | Cn1c(-c2ccccn2)nc(-c2ccc(C(C)(C)O)nc2)c1Sc1ccc(Cl)cc1 [Example 105, 2-(5-{5-[(4-Chlorophenyl)thio]-1-methyl-2-pyridin-2-yl-1H-imidazol-4-yl}pyridin-2-yl)propan-2-ol] | 37.8 nM

Same assay, conditions: human FAAH lysate; read-out: hFAAH lysate IC50

Row | IC50 | SMILES
8 | 37.6 nM | Cn1c(-c2ccccn2)nc(-c2ccc(S(C)(=O)=O)nc2)c1Sc1ccc(F)c(F)c1 [Example 103]
9 | 60.2 nM | Cn1c(-c2ccccn2)nc(-c2ccc(C(C)(C)O)nc2)c1Sc1ccc(F)c(F)c1 [Example 107]
10 | 33.2 nM | Cn1c(-c2ccccn2)nc(-c2ccc(C(C)(C)O)nc2)c1Sc1ccc(F)cc1F [Example 108]
11 | 24.8 nM | Cn1c(-c2nccs2)nc(-c2ccc(S(C)(=O)=O)cc2)c1Sc1ccc(Cl)cc1 [Example 138]
12 | 134 nM | Cn1c(-c2ccccn2)nc(-c2ccc(C(C)(C)O)nc2)c1Sc1ccc(F)cn1 [Example 109]

Reference: US8455528B2, “Imidazole derivatives useful as inhibitors of FAAH” (Merck Sharp & Dohme Corp., priority 2008, dated 2013)
